Like-named read-outs stand apart in the source and are kept apart here.
Experiments:
KYSE-70 = assay: Proliferation of tumor cell lines (Bracht et al.); format: cell-based; conditions: Homo sapiens; for activity at 20 µM: KYSE-70, tested at 20 μM, read-out: T/C (%) Mean
Aurora-B = target: T1, Aurora-B (Homo sapiens, UniProt Q96GD4); assay: Radiometric protein kinase assay (33PanQinase Activity Assay); format: biochemical
T1 construct: made in house; host or cells: Sf9 insect cells, baculovirus
Excerpt: (§1) AKTI1, ARK5, Aurora-A, Aurora-B, B-RAF-VE, CDK2/CycA, CDK4/CycD1, CK2-alpha1 (catalytic subunit of CK2), EGF-R, EPHB4, ERBB2, FAK, IGF1-R, SRC, VEGF-R2, VEGF-R3, FLT3, INS-R, MET, PDGFR-beta, PLK1, SAK, TIE2, COT.
(§2) All the protein kinases were expressed in Sf9 insect cells as human recombinant GST fusion proteins or His-tagged proteins by the baculovirus expression system. Kinases were purified by affinity chromatography either by GSH-agarose (Sigma) or Ni—NTH-agarose (Qiagen). The purity of the kinases was tested by SDS-PAGE/silver staining, and the identity of the kinases was verified by Western blot analysis with specific antibodies or mass spectroscopy.
(§3) A radiometric protein kinase assay (33PanQinase® Activity Assay) was used to measure the kinase activity for the 24 protein kinases. The kinase assays were carried out in 96-well FlashPlates™ from Perkin Elmer/NEN (Boston, Mass., USA) in a reaction volume of 50 μl. The reaction mixture was pipetted in 4 steps in the following sequence: • 20 μl of assay buffer • 5 μl of ATP solution (in H2O) • 5 μl of test compound (in 10% DMSO) • 10 μl of substrate/10 μl of enzyme solution (premixed)
(§4) The assays for all the enzymes contained 60 mM HEPES-NaOH, pH 7.5, 3 mM MgCl2, 3 mM MnCl2, 3 μM Na orthovanadate, 1.2 mM DTT, 50 μg/ml PEG20000, 1 μM [γ-^33P]-ATP (about 5×10^5 cpm per well).
(§5) The reaction mixture was incubated at 30° C. for 80 minutes. The reaction was stopped with 50 μl of 2% (v/v) H3PO4. The plates were aspirated and washed twice with 200 μl of 0.9% (w/v) NaCl. The incorporation of ^33Pi was determined using a microtiter plates scintillation counter (Microbeta Trilux, Wallac).

IGF1-R = target: T2, IGF1-R (Homo sapiens, UniProt P08069); assay: as above; format: biochemical
T2 construct: made in house; host or cells: Sf9 insect cells, baculovirus
Excerpt: as §1, §2, §3, §4, §5

CDK4/CycD1 = target: T3, CDK4/CycD1 (Homo sapiens, UniProt P11802); assay: as above; format: biochemical
T3 construct: made in house; host or cells: Sf9 insect cells, baculovirus
Excerpt: as §1, §2, §3, §4, §5

VEGF-R3 = target: T4, VEGF-R3 (Homo sapiens, UniProt P35916); assay: as above; format: biochemical
T4 construct: made in house; host or cells: Sf9 insect cells, baculovirus
Excerpt: as §1, §2, §3, §4, §5

Aurora-A = target: T5, Aurora-A (Homo sapiens, UniProt O14965); assay: as above; format: biochemical
T5 construct: made in house; host or cells: Sf9 insect cells, baculovirus
T5 sequence (O14965 1-403): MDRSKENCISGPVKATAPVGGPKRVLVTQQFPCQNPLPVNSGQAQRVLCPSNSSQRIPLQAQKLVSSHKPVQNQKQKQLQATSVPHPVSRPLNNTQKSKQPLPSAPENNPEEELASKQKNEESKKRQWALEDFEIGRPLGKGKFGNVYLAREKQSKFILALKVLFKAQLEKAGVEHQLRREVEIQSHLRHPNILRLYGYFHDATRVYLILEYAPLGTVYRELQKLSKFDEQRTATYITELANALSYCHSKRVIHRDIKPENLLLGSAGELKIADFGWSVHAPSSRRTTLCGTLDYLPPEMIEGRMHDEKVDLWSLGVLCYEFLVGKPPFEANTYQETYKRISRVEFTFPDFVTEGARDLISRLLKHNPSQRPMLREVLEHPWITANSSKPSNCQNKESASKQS
Excerpt: as §1, §2, §3, §4, §5

EPHB4 = target: T6, EPHB4 (Homo sapiens, UniProt P54760); assay: as above; format: biochemical
T6 construct: made in house; host or cells: Sf9 insect cells, baculovirus
T6 sequence (P54760 16-987): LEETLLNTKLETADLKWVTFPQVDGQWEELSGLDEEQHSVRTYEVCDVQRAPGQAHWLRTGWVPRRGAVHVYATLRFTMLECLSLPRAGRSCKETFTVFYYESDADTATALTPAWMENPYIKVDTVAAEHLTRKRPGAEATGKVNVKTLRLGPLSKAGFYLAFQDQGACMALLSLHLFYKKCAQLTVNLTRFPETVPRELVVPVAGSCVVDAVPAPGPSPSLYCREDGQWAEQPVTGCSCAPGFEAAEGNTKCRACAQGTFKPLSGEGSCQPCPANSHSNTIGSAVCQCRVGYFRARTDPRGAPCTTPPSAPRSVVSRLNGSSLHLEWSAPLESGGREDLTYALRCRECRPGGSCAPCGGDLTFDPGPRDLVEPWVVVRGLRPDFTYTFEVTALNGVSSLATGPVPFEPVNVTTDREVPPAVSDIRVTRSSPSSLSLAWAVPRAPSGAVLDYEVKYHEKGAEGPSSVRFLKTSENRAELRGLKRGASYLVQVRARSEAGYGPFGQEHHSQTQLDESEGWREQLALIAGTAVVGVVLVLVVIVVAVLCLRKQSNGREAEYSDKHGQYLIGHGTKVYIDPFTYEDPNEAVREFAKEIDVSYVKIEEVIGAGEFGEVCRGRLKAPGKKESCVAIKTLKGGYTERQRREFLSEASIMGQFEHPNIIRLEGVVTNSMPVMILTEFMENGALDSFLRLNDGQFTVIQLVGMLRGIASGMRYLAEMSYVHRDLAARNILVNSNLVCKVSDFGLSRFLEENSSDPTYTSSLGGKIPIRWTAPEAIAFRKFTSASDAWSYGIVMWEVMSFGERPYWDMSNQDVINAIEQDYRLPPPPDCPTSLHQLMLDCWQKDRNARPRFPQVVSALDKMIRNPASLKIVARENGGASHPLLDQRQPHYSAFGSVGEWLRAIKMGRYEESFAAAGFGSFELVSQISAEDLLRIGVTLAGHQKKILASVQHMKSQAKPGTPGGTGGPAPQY
Excerpt: as §1, §2, §3, §4, §5

AKT1 = target: T7, AKT1 (Homo sapiens, UniProt P31749); assay: as above; format: biochemical
T7 construct: made in house; host or cells: Sf9 insect cells, baculovirus
Excerpt: as §1, §2, §3, §4, §5

B-RAF-VE = target: T8, B-RAF-VE (Homo sapiens, UniProt P15056, V600E); assay: as above; format: biochemical
T8 construct: made in house; host or cells: Sf9 insect cells, baculovirus
Excerpt: as §1, §2, §3, §4, §5

SISO = assay: Proliferation of tumor cell lines (Bracht et al.); format: cell-based; conditions: for activity at 20 µM: tested at 20 μM, read-out: T/C (%) Mean
[1] = 1 μM ATP, read-out: IC50 values [μM] Aurora-B
[2] = 1 μM ATP, read-out: IC50 values [μM] IGF1-R
[3] = 1 μM ATP, read-out: IC50 values [μM] CDK4/CycD1
[4] = 1 μM ATP, read-out: IC50 values [μM] VEGF-R3
[5] = 1 μM ATP, read-out: IC50 values [μM] Aurora-A
[6] = 1 μM ATP, read-out: IC50 values [μM] EPHB4
[7] = 1 μM ATP, read-out: IC50 values [μM] AKT1
[8] = 1 μM ATP, read-out: IC50 values [μM] B-RAF-VE

T4 sequence (P35916 25-1363): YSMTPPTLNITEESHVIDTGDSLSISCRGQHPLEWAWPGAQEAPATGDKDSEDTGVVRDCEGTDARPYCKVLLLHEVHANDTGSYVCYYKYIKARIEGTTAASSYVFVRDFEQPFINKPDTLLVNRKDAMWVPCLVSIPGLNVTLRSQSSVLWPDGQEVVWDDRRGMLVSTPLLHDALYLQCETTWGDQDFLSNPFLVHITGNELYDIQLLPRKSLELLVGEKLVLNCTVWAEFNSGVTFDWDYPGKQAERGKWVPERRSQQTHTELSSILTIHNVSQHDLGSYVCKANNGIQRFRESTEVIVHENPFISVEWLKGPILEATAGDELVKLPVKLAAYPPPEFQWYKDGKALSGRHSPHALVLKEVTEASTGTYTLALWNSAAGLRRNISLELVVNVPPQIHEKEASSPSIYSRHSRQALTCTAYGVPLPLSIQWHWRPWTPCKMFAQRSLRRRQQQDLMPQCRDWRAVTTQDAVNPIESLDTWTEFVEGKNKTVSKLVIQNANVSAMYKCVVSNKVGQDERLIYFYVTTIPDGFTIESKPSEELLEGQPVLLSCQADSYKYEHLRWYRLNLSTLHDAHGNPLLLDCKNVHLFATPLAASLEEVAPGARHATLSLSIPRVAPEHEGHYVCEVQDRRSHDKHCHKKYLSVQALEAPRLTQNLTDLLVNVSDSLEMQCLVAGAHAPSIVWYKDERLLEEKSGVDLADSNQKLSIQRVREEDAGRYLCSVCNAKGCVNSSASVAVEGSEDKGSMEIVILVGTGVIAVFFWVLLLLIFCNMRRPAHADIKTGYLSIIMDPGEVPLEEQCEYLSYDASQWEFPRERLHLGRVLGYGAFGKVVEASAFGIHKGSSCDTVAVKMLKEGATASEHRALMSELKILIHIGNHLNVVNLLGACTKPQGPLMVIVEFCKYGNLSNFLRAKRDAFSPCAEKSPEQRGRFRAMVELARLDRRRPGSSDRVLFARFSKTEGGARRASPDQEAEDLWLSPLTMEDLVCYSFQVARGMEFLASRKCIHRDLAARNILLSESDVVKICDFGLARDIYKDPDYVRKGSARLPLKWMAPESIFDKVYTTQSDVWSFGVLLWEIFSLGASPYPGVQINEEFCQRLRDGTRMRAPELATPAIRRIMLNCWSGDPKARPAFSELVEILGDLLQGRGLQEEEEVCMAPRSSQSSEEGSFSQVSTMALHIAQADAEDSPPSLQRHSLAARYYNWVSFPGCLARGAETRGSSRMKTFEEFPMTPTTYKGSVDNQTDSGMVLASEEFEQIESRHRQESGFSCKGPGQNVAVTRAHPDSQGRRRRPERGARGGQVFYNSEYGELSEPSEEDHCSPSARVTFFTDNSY
T7 sequence (P31749 whole entry): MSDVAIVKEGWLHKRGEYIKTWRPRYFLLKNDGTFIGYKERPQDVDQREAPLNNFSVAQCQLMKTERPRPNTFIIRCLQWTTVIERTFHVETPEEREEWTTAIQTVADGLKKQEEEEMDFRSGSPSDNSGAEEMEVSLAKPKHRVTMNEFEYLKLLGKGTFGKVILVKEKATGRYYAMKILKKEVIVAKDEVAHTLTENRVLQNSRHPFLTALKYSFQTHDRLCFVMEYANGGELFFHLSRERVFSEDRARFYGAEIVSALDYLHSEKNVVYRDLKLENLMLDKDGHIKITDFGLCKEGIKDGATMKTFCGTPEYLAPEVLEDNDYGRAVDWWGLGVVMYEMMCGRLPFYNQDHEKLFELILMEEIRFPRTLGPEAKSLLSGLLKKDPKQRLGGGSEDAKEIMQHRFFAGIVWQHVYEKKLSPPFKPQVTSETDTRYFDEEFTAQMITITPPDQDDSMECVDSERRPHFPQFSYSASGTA
T1 sequence (Q96GD4 whole entry): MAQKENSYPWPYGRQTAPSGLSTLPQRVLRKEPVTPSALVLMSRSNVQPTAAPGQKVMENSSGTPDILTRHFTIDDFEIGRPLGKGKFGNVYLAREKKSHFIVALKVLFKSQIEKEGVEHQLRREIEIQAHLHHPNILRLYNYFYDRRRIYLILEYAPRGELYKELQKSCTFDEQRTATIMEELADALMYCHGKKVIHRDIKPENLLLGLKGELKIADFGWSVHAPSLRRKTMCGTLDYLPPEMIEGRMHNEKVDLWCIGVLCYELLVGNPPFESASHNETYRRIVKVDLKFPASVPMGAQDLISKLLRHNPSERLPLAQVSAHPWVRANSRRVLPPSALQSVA
T8 sequence (P15056 whole entry V600E): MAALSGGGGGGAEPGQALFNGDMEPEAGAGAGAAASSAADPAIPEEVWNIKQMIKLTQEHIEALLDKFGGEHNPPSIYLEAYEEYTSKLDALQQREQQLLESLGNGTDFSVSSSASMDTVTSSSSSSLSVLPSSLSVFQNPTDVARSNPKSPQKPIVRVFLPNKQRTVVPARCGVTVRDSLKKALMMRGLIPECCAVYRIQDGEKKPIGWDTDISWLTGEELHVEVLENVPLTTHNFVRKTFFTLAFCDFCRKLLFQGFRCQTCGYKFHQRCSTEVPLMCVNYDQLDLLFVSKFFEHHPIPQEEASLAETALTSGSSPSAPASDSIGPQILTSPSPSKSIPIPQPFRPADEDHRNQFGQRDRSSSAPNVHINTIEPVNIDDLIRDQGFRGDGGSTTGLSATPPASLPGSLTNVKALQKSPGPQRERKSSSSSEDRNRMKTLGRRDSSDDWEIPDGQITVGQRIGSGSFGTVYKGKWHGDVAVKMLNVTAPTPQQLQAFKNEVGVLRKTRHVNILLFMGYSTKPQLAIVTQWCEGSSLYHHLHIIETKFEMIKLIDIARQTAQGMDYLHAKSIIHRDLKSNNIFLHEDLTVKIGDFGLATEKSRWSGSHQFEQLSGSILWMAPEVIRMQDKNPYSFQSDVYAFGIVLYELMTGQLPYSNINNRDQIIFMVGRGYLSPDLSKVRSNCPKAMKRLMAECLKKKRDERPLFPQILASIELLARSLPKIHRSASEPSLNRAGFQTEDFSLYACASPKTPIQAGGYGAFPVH
T2 sequence (P08069 31-1367): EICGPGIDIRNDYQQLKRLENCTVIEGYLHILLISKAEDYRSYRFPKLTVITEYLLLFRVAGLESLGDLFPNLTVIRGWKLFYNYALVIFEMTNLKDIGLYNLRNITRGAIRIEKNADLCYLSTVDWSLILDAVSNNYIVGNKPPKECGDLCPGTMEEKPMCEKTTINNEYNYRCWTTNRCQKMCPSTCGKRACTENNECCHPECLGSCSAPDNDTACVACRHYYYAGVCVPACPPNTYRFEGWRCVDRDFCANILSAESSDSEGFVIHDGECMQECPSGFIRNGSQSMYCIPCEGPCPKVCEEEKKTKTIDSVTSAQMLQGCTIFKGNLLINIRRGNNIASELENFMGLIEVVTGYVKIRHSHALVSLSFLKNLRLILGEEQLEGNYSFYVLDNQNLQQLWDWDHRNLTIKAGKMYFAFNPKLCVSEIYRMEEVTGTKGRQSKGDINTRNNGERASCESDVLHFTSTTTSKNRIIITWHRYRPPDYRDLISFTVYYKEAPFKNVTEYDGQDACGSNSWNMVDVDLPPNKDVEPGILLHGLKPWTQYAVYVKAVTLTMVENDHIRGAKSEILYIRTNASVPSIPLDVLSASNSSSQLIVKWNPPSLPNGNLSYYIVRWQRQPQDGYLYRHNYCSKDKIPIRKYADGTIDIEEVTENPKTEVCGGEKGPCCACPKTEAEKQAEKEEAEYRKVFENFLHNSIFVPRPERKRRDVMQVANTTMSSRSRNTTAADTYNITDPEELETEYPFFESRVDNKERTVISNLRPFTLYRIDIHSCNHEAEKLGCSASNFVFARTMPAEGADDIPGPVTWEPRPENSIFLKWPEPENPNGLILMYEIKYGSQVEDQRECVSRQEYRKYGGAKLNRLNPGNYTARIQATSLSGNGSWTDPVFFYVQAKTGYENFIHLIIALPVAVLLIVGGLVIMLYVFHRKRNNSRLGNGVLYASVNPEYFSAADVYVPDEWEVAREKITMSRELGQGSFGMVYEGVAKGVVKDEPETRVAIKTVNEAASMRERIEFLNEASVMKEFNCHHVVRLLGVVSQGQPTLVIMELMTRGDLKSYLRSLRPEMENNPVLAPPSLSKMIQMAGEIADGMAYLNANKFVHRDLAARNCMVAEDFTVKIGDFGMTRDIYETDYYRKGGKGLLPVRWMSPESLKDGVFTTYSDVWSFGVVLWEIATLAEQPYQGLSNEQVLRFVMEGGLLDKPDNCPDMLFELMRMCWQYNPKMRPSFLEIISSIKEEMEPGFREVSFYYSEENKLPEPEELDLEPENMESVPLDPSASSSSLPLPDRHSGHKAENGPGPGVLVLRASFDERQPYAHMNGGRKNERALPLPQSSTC
T3 sequence (P11802 whole entry): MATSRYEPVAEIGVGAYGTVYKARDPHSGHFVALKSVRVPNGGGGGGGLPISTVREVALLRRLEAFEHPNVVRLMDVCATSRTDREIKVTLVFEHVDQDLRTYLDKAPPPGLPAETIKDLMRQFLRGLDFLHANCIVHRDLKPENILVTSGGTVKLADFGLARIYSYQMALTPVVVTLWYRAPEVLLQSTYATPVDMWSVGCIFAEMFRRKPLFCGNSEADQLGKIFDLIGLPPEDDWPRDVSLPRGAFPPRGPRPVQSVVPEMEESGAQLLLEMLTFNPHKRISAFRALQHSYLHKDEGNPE
T3 sequence (P24385 whole entry partner): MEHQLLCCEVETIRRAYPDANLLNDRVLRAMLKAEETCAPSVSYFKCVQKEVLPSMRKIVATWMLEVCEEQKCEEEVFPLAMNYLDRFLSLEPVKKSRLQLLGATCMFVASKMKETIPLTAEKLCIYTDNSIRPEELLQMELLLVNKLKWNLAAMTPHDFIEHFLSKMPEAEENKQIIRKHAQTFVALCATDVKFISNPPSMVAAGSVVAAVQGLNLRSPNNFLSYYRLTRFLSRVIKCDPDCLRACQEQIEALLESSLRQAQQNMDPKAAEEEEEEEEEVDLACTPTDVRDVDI

IC50 (KYSE-70; KYSE-70, read-out: IC50 (μM) Mean, inhibition of cell proliferation) [µM] | IC50 (SISO; read-out: IC50 (μM) Mean, inhibition of cell proliferation) [µM] | Structure (SMILES) | activity at 20 µM (KYSE-70) [%] | IC50 (Aurora-B) [µM] | IC50 (IGF1-R) [µM] | IC50 (CDK4/CycD1) [µM] | IC50 (VEGF-R3) [µM] | IC50 (Aurora-A) [µM] | IC50 (EPHB4) [µM] | IC50 (AKT1) [µM] | IC50 (B-RAF-VE) [µM] | activity at 20 µM (SISO) [%] | IC50 (Aurora-B; [1]) [µM] | IC50 (IGF1-R; [2]) [µM] | IC50 (CDK4/CycD1; [3]) [µM] | IC50 (VEGF-R3; [4]) [µM] | IC50 (Aurora-A; [5]) [µM] | IC50 (EPHB4; [6]) [µM] | IC50 (AKT1; [7]) [µM] | IC50 (B-RAF-VE; [8]) [µM]
 |  | CC(C)n1c2c(c3c1-c1ccccc1C3=O)C(=O)CCC2 [Compound 4b, 5-Isopropyl-5,6,7,8-tetrahydroindeno[1,2-b]indole-9,10-dione] | 74.9 | > 10 | > 10 | > 10 | > 10 | > 10 | > 10 | > 10 | > 10 | 100 |  |  |  |  |  |  |  | 
2.83 | 2.82 | O=c1ccc(=O)c2c1c1c(=O)c3ccccc3c1n2Cc1ccccc1 [Compound 6c, 5-Benzyl 5,6,9,10-tetrahydroindeno[1,2-b]indole-6,9,10-trione] | 12.1 |  |  |  |  |  |  |  |  | 5.3 | > 10 | 2.5 | 7.6 | 7.5 | > 10 | 9.3 | > 10 | > 10
 |  | CC(C)n1c2c(=O)ccc(=O)c2c2c(=O)c3ccccc3c21 [Compound 6b, 5-Isopropyl-5H-indeno[1,2-b]indole-6,9,10-trione] | 1.26 |  |  |  |  |  |  |  |  | 0.28 | 5.4 | 2.9 | > 10 | 0.96 | 5.8 | > 10 | 9.3 | > 10
